Results reported in patent US20260069523A1, “SKIN CARE COMPOSITION AND USE THEREOF” (NANJING NUTRABUILDING BIO-TECH CO., LTD., priority 2023, published 2026).

What was measured:
TNF-α = assay: Anti-inflammatory test: TNF-α in UVB-stimulated keratinocytes; format: cell-based, human; settings: UV-B 50 mJ/cm^2 irradiated keratinocytes, 24 h, supernatant, maximum non-cytotoxic dose (combinations: half dose each)
Method: (§1) Cell culture: HaCat, a normal human epidermal keratinocyte (NHEK) cell line, was purchased from Wuhan Saios Biotechnology Co., Ltd. The cells were stored in a humid environment (95% air and 5% carbon dioxide at 37° C.) and cultured in DMEM supplemented with 10% heat inactivated FBS, 2 mM glutamine and 1% penicillin/streptomycin. The culture was harvested and the cell morphology was examined by phase contrast microscope. Cell suspension was counted with a hemocytometer (Marienfeld, Germany) to monitor the number of cells.
(§2) UVB stimulation: Keratinocytes were inoculated into a 12-well plate (50,000 cells/mL) and cultured to a confluency of ˜80%. The cells were washed once with phosphate buffered saline (PBS) at room temperature, 0.5 mL PBS was added to the cells, and then irradiated with ultraviolet rays. The cells were exposed to 50 mJ/cm^2 UV-B (Philips, 311 nm) for 2 minutes. […]
(§3) Detection of inflammatory factors: the standard curve of each cytokine (TNF-α, IL-8, IL-6) were generated by using the reference cytokine samples provided by the kit. […] The absorbance (OD value) was measured by microplate reader at the wavelength of 450 nm, and the concentration was calculated according to the standard curve.

IL-6 = assay: Anti-inflammatory test: IL-6 in UVB-stimulated keratinocytes; format: cell-based, human; settings: UV-B 50 mJ/cm^2 irradiated keratinocytes, 24 h, supernatant, maximum non-cytotoxic dose (combinations: half dose each)
Method: as §1, §2, §3

IL-8 = assay: Anti-inflammatory test: IL-8 in UVB-stimulated keratinocytes; format: cell-based, human; settings: UV-B 50 mJ/cm^2 irradiated keratinocytes, 24 h, supernatant, maximum non-cytotoxic dose (combinations: half dose each)
Method: as §1, §2, §3

tyrosinase = assay: Whitening test: inhibition of tyrosinase; settings: 1 mg/mL sample solutions (combinations mixed 1:1 or 1:1:1), tyrosine substrate, 30° C., absorbance 475 nm

Compound | content of TNF-α (TNF-α) | content of IL-6 (IL-6) | content of IL-8 (IL-8) | inhibition rate on tyrosinase (tyrosinase)
C[N+](C)(C)[C@@H](Cc1c[nH]c(=S)[nH]1)C(=O)[O-] [EGT, ergothioneine] | about 95 pg/ml | 28 pg/mL | 23 pg/mL | 68%
COc1cc(CCC(=O)CC(=O)CCc2ccc(O)c(OC)c2)ccc1O [THC, tetrahydrocurcumin] | about 90 pg/ml | 27 pg/mL | 25 pg/mL | –
